What was measured:
[1] = gel matrix formation on evaporation of an aqueous solution at room temperature; assay type: physicochemical
Excerpt: In contrast to an alpha hydroxyacid and polyhydroxyacid, an oligosaccharide aldonic acid can form a gel matrix when its aqueous solution is evaporated at room temperature. The transparent gel obtained retains certain amount of water forming a clear gel matrix. The amount of water retention depends on individual oligosaccharide aldonic acid. Examples of gel matrix preparations are provided below.
In one example, a gel matrix can be formed when aqueous solution comprising an oligosaccharide aldonic acid is evaporated at room temperature. The transparent gel thus obtained retains certain amount of water forming a clear gel matrix. The amount of water retention depends on individual oligosaccharide aldonic acid. For example, maltobionic acid 1 g in a beaker was dissolved in water 1 ml, and the solution thus obtained was left at room temperature. Fifty percent of the original water had been evaporated at the end of 24 hours, and 57% at the end of 48 hours, and 60% at the end of 72 hours, and no more or minimal evaporation of water could be detected after 72 hours. A clear gel film thus obtained contained 29% water complexed with maltobionic acid molecules. In the same manner, lactobionic acid formed a clear gel matrix with 14% water molecules and cellobionic acid formed a transparent gel with 7% water molecules.
A typical experiment to determine a gel matrix formation of an oligosaccharide aldonic acid may be carried out as follows.
Maltobionic acid 1 g in a beaker of 3.6 cm diameter and 3.6 cm height was dissolved in water 1 ml, and the solution thus obtained was left at room temperature between 20-25° C. to allow a slow evaporation of the water. […] The continuous transparent film thus obtained consisted of 71% maltobionic acid and 29% water by weight, and was formed as a complex gel matrix between maltobionic acid molecules and water molecules.

[2] = system: scrotum and perineum itch; assay: topical treatment of scrotum and perineum itch; assay type: in vivo, human; settings: 18% oil-in-water cream pH 2.0, person
Excerpt: Lactobionic acid 54% aqueous solution 30 g was uniformly mixed with an oil-in-water base 60 g. The cream thus prepared had pH 2.0 and contained 18% lactobionic acid.
A subject, having a lasting scrotum and perineum itch after each time taking a shower topically applied the above bionic acid cream to the affected areas of the skin.

[3] = antioxidant property, hydroquinone test method; assay type: physicochemical; settings: oil-in-water cream, 2% hydroquinone, test substance 0.4 M, room temperature, 5 days
Excerpt: An antioxidant may be defined as a substance capable of preventing or inhibiting oxidation. […] The antioxidant property is readily determined by using any one of the following test methods: prevention or retardation of air oxidation of (a) anthralin, (b) hydroquinone, or (c) banana peel. A freshly prepared anthralin solution or cream is bright yellow, and an air oxidized one is brownish or black. A hydroquinone solution or cream is colorless or white color, and an air oxidized one is brownish or black. A freshly peeled banana peel is light yellow in color and an oxidized one ranges in color from tan, dark tan, brown to brownish black.
Antioxidant property of an oligosaccharide aldonic acid may also be determined by utilizing hydroquinone test method as follows. Hydroquinone also known as 1,4-dihydroxybenzene is a white powder, and a composition containing hydroquinone without a suitable antioxidant is chemically unstable even at room temperature. For example, hydroquinone 2% in an oil-in-water cream changed in color from white to grey within 2 hours, and the cream became light brown within 48 hours and dark brown after 72 hours at room temperature.

dry vaginal mucosa = assay: topical treatment of dry vaginal mucosa; assay type: in vivo, human; settings: 5% in molecular complex with 0.5% L-arginine, oil-in-water cream pH 3.1, twice daily, one week, person
Experimental: Lactobionic acid 50% aqueous solution 10 g was uniformly mixed with an oil-in-water base 80 g, and the cream thus obtained had pH 2.5. L-Arginine 5% solution 10 g prepared from 8 parts water and 2 parts propylene glycol by volume was added to form molecular complex of amphoteric system as shown by the increase of pH to 3.1. The composition thus formulated contained 5% lactobionic acid in molecular complex with 0.5% L-arginine.
A subject, having dry vaginal mucosa topically applied the above bionic acid cream twice daily to the affected areas of the mucosa.

[4] = system: linear wounds 1 cm in length and 0.5 mm in depth; assay: healing of linear needle wounds on forearm; assay type: in vivo, human; settings: 2% in distilled water
Excerpt: A sterile 22-gauge needle was held in the jaws of a surgical needle holder, and two linear wounds 1 cm in length and 0.5 mm in depth were made on alcohol-swabbed left forearm of a healthy subject. The wounds were swabbed dry with cotton balls. A control solution containing 0.9% sodium chloride in distilled water was applied to one wound, and a test solution containing 2% lactobionic acid in distilled water was applied to the other wound. Both wounds were covered with 3M Tegaderm tapes for five days. […] The erythema disappeared from both skin sites at the end of nine days.

[5] = system: skin changes associated with aging; assay: skin thickness of forearm by micrometer calipers after topical application; assay type: in vivo, human; settings: twice daily, four weeks, person
Experimental: In one of the studies related to skin changes associated with aging, skin thickness was measured by micrometer calipers as follows:
The skin was grasped with a 2×6 cm metal hinge; the internal faces of which were coated with emery cloth to prevent slippage, and manually squeezed to threshold subject discomfort. Combined thickness of two whole-skin layers including thickness of the two hinge leaves was measured with micrometer calipers. Thickness of the two hinge leaves was subtracted to determine the actual thickness of two whole-skin layers. Triplicate measurements on treated sites were done and an average number was used for calculation of the skin thickness.
A subject, topically applied twice daily to their left forearm for four weeks lactobionic acid 22% in a solution prepared from water 7 parts and propylene glycol 3 parts. After four weeks their right forearm was still loose and relatively thin, and the skin was relatively rough and dry. […] While there was no change in skin thickness of their right forearm, their left forearm had increased 12% in skin thickness as measured by the micrometer calipers described in the Example.

[6] = system: circular wounds 0.5 mm in depth; assay: healing of circular 4 mm biopsy punch wounds on forearm; assay type: in vivo, human; settings: 2% in distilled water
Excerpt: A sterile 4 mm skin biopsy punch was used to make two circular wounds 0.5 mm in depth on alcohol-swabbed left forearm of a healthy subject. The wounds were swabbed dry with cotton balls. A control solution containing 0.9% sodium chloride in distilled water was applied to one circular wound, and a test solution containing 2% lactobionic acid in distilled water was applied to the other circular wound. Both wounds were covered with 3M Tegaderm tapes for five days. […] The erythema disappeared from both skin sites at the end of nine days.

[7] = by weight, 1 g acid in 1 ml water evaporated at room temperature
[8] = covered five days, end of one week, saline control not epithelialized

O=C(O)[C@H](O)[C@@H](O)[C@H](O[C@@H]1O[C@H](CO)[C@H](O)[C@H](O)[C@H]1O)[C@H](O)CO [lactobionic acid]
gel matrix formation ([1]; 1 g in 1 ml water, 20-25° C., slow evaporation): clear continuous gel film was formed | acid content of the gel film [1, 7]: 86% | water retained in the gel film (gel matrix) [1, 7]: 14% | itch [2]: itch stopped immediately | colour change of hydroquinone cream [3]: did not change color | dryness of vaginal mucosa (dry vaginal mucosa): dryness of vaginal mucosa disappeared completely | wound healing [4, 8]: healed with re-epithelialization | time to disappearance of erythema ([4]; same at control site): nine | increase in skin thickness ([5]; 22% in water/propylene glycol 7:3 solution, left forearm): 12% | skin condition of treated forearm ([5]; 22% solution): more firm and plump, and the skin was smooth, soft and not dry | wound healing [6, 8]: healed with re-epithelialization | time to disappearance of erythema ([6]; same at control site): nine
